Drawing on PubChem BioAssay (NCI), this text covers GI50 and TGI for seven compounds.

Values joined by “and” are separate entries in the source; they are usually repeats but may differ in a detail not shown here. Equal entries are not always repeated.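 Cultured in 96-well plates, cells were exposed to test compound for 48 hours across five concentrations. The concentration for 50% growth inhibition is given as GI50. The concentration for full growth arrest is given as TGI.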 Where a SMILES comes first, the peptide text is derived from it. [ ]: non-standard residue; d: D form. Orn = NCCC[CH](N)C(=O)O A value given as a limit tells only on which side of the number the result lay.

Some test systems named below: UACC-62 melanoma; DU-145 prostate; SF-268 CNS; NCI-H460 lung; T-47D breast; COLO 205 colon; SN12C renal; 786-0 renal; MDA-MB-435; IGROV1 ovarian.
Common to all, as to assay: NCI-60 cell line screen, 48 h

For the compound `Cc1cc(Cl)ccc1Nc1nc(C(F)(F)F)ccc1C(=O)N/N=C/c1c(Cl)cccc1Cl`, the GI50 in the test on UACC-62 melanoma is 0.489 µM; in the test with DU-145 prostate, 0.548 µM; in the test on SF-268 CNS, 0.354 µM; with NCI-H460 lung, 0.322 µM; in the test on T-47D breast, 0.331 µM; in the test on COLO 205 colon, 0.358 µM. Moreover, the GI50 was 0.262 µM in the test with SN12C renal, 0.292 µM with 786-0 renal, 0.357 µM in the test on MDA-MB-435 and 0.357 µM in the test on IGROV1 ovarian. Further, the TGI in the test on UACC-62 melanoma is 6.38 µM; with DU-145 prostate, > 100 µM; with SF-268 CNS, > 36.4 µM; in the test with NCI-H460 lung, 4.39 µM; in the test with T-47D breast, 1.98 µM; in the test on COLO 205 colon, 1.24 µM. Besides, the TGI in the test on SN12C renal was > 100 µM; with 786-0 renal, 1.08 µM; in the test with MDA-MB-435 it was > 100 µM; in the test with IGROV1 ovarian, 6.29 µM.
As to `CCN(CC)CCCC(C)Nc1ccnc2cc(Cl)c(SCc3ccccc3)cc12` (stereo not drawn), the GI50 is 0.214 µM with UACC-62 melanoma; 3.45 µM with DU-145 prostate; 1.59 µM in the test with SF-268 CNS; 1.77 µM in the test on NCI-H460 lung; 1.98 µM with T-47D breast; 1.04 µM in the test with COLO 205 colon. Moreover, the GI50 in the test on SN12C renal is 1.7 µM; with 786-0 renal it was 1.47 µM; in the test with MDA-MB-435, 0.275 µM; in the test with IGROV1 ovarian, 1.81 µM. Further, the TGI amounted to 0.585 µM with UACC-62 melanoma; 13.5 µM with DU-145 prostate; 3.65 µM in the test on SF-268 CNS; 4.54 µM with NCI-H460 lung; 4.77 µM in the test with T-47D breast; 2.3 µM in the test on COLO 205 colon. For the same compound, the TGI was determined as 4.07 µM in the test with SN12C renal, 2.85 µM with 786-0 renal, 0.838 µM in the test with MDA-MB-435 and 4.95 µM in the test with IGROV1 ovarian.
On to `CC(C)CC1NC(=O)C(CCCN)NC(=O)C(C(C)C)NC(=O)C2CCCN2C(=O)C(Cc2ccccc2)NC(=O)C(CC(C)C)NC(=O)C(CCCN)NC(=O)C(C(C)C)NC(=O)C2CCCN2C(=O)C(Cc2ccccc2)NC1=O` (stereo not drawn) (cyclo(FPV[Orn]LFPV[Orn]L); configuration not given here), for which the GI50 with UACC-62 melanoma was < 0.0123 µM and 0.0315 µM; with DU-145 prostate, 0.0184 µM and 0.0529 µM; with SF-268 CNS, 0.0168 µM and 0.0594 µM; with NCI-H460 lung it was 0.0111 µM and 0.0287 µM; in the test on T-47D breast, < 0.00325 µM; in the test on COLO 205 colon, < 0.00325 µM. In addition, the GI50 in the test on SN12C renal was 0.0111 µM and 0.0288 µM; in the test with 786-0 renal, 0.0451 µM and 0.0506 µM; in the test with MDA-MB-435 it was 0.00425 µM; with IGROV1 ovarian it was 0.18 µM and 0.228 µM. Also, the TGI in the test with UACC-62 melanoma is 0.443 µM and 1.26 µM; with DU-145 prostate it was 1.45 µM and 1.97 µM; in the test with SF-268 CNS it was 0.565 µM and 1.66 µM; in the test on NCI-H460 lung, 0.0385 µM and 0.107 µM; with T-47D breast, 0.433 µM and 1.24 µM; in the test with COLO 205 colon, 0.00419 µM. Also, the TGI in the test on SN12C renal is 0.419 µM and 1.13 µM; with 786-0 renal it was 0.46 µM and 1.26 µM; in the test on MDA-MB-435, 0.371 µM and 1.21 µM; in the test on IGROV1 ovarian, 4.69 µM and 3.75 µM.
For the compound `N=C(N)c1ccc(-c2ccc(-c3ccco3)o2)cc1F`, the GI50 in the test with DU-145 prostate is 3.27 µM; in the test on SF-268 CNS, 2.9 µM; in the test with NCI-H460 lung, 1.98 µM; in the test on T-47D breast it was 2.05 µM; in the test with COLO 205 colon, 1.8 µM; in the test on SN12C renal it was 2.01 µM. The GI50 in the test with 786-0 renal is 1.74 µM; with MDA-MB-435, 1.63 µM; in the test with IGROV1 ovarian, 2.13 µM. Also, the TGI was determined as 11.5 µM with DU-145 prostate; 10.4 µM in the test on SF-268 CNS; 4.17 µM in the test on NCI-H460 lung; 5.54 µM with T-47D breast; 3.62 µM in the test with COLO 205 colon; 6.53 µM in the test with SN12C renal. The TGI in the test on 786-0 renal is 4.08 µM; in the test on MDA-MB-435, 3.25 µM; in the test on IGROV1 ovarian it was 6.02 µM.
For the compound `CCOC(=O)c1c2c(n3cccc(F)c13)C(=O)c1ncccc1C2=O`, the GI50 in the test with UACC-62 melanoma is 0.222 µM; in the test on DU-145 prostate it was 0.0761 µM; in the test on SF-268 CNS, 0.0963 µM; with NCI-H460 lung, 0.0263 µM; with T-47D breast, 3.53 µM; in the test with COLO 205 colon, 1.27 µM. Further, the GI50 in the test with SN12C renal is 0.457 µM; with 786-0 renal it was 0.114 µM; in the test on MDA-MB-435, 0.541 µM; in the test on IGROV1 ovarian it was 1.6 µM. Besides, the TGI came to 1.28 µM in the test with UACC-62 melanoma; 2.84 µM with DU-145 prostate; 28.2 µM with SF-268 CNS; 1.12 µM with NCI-H460 lung; 25.2 µM with T-47D breast; 7.2 µM with COLO 205 colon. Moreover, the TGI stood at 17.6 µM with SN12C renal, 4.99 µM in the test with 786-0 renal, 10.7 µM in the test on MDA-MB-435 and 24.9 µM in the test on IGROV1 ovarian.
As to `O=C(Nc1cccc2ccccc12)c1cc2ccccc2cc1O`, the GI50 in the test with UACC-62 melanoma was 1.49 µM; with DU-145 prostate, 3.84 µM; in the test with SF-268 CNS, 3.47 µM; with NCI-H460 lung, 2.06 µM; with T-47D breast it was 2.8 µM; in the test on COLO 205 colon, 9.76 µM. For the same compound, the GI50 was 2.4 µM in the test with SN12C renal, 3.43 µM in the test with 786-0 renal, 1.87 µM in the test on MDA-MB-435 and 1.46 µM with IGROV1 ovarian. In addition, the TGI is 10.7 µM in the test on UACC-62 melanoma; > 100 µM in the test with DU-145 prostate; 39.1 µM in the test with SF-268 CNS; 5.87 µM with NCI-H460 lung; 18.7 µM with T-47D breast; 23.7 µM in the test with COLO 205 colon. Besides, the TGI in the test on SN12C renal was 9.97 µM; with 786-0 renal, 17.2 µM; in the test on MDA-MB-435, 5.05 µM; with IGROV1 ovarian, 7.27 µM.
Regarding `Cc1cccc2c(=O)c3c(sc12)c(NCCN)nc1ccccc13`, the GI50 with UACC-62 melanoma was 0.811 µM; in the test with DU-145 prostate, 0.981 µM; in the test on SF-268 CNS it was 1.18 µM; in the test with NCI-H460 lung it was 0.768 µM; in the test with T-47D breast, 0.685 µM; with COLO 205 colon, 0.826 µM. Besides, the GI50 is 0.754 µM in the test on SN12C renal, 0.917 µM in the test on 786-0 renal, 0.911 µM in the test on MDA-MB-435 and 0.582 µM in the test on IGROV1 ovarian. Also, the TGI with UACC-62 melanoma turned out to be 1.65 µM; in the test on DU-145 prostate, 1.97 µM; with SF-268 CNS, 3.88 µM; in the test on NCI-H460 lung, 1.54 µM; in the test on T-47D breast it was 1.6 µM; in the test with COLO 205 colon, 1.65 µM. The TGI in the test with SN12C renal came to 1.54 µM; in the test on 786-0 renal it was 1.69 µM; with MDA-MB-435, 1.67 µM; in the test on IGROV1 ovarian, 1.26 µM.
